From patent US12162864B2, “Condensed-cyclic compound” (Takeda Pharmaceutical Company Limited, priority 2018, dated 2024)

Tests used:
human M1 receptor = target: T1, human M1 receptor (Homo sapiens, UniProt P11229); test: Measurement of M1 receptor positive allosteric modulator (M1PAM) activity; type: cell-based; settings: PAM activity in presence of acetylcholine at EC20 concentration; CHO-K1 cells stably expressing human M1 receptor; IP1 time-resolved fluorescence
T1 construct: expressed in transfected cells; host or cells: CHO-K1
T1 sequence (P11229 1-460): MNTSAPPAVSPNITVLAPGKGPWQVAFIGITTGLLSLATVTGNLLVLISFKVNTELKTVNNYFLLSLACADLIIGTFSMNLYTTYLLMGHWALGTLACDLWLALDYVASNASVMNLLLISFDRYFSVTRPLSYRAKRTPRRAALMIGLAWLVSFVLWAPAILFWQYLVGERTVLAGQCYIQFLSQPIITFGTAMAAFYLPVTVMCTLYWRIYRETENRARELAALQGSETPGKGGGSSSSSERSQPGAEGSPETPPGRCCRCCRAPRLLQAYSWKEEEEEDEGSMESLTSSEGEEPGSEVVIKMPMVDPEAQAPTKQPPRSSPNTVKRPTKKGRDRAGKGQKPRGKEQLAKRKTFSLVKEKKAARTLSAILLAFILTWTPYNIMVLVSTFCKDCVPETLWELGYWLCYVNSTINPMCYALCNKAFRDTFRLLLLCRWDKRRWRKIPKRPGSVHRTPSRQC
Experimental: Measurement of M1 Receptor Positive Allosteric Modulator (M1PAM) Activity
The activity of a test compound in the presence of acetylcholine at an EC20 concentration affording about 20% action of the maximum activity was measured as PAM activity. The method therefor is as follows. To a 384-well white plate (Greiner™) was added 4 μL of the test compound diluted with IP1 Stimulation buffer (CisBio™) containing 0.1% fatty acid-free BSA containing 80 nM acetylcholine. Freeze stock of CHO-K1 cells stably expressing human M1 receptor (hCHRMl) was prepared with IP1 Stimulation buffer (CisBio™) containing 0.1% fatty acid-free BSA, 4 μL thereof was added (10,000 cells/well) and the mixture was cultured in a 5% CO2 incubator at 37° C. for 1 hr. 4 μL of a solution (CisBio™) containing IP1-d2 and Anti-IP1-cryptate Tb conjugate was added the mixture was incubated at room temperature for 1 hr, and the time-resolved fluorescence signal was measured on an Envision plate reader (Perkin Elmer™). The activity (%) of the test compound was calculated by defining the value when acetylcholine was added at the final concentration of 20 μM as 100% and the value when DMSO was added instead of the test compound under acetylcholine-free conditions as 0%, and the EC50 value was calculated as a value of 50% of the concentration dependence curve of the test compound.

Rat PK test = type: in vivo; settings: plasma, male SD rats, cassette dosing; for clearance / MRT: intravenous 0.1 mg/kg; for clearance: read-out: CL total (total clearance) (converted); for MRT: read-out: MRT iv (mean residence time); for Tmax: oral 1 mg/kg, read-out: Tmax (time to reach maximum plasma concentration)
Experimental: As the rat, 8-week-old male SD rats (Japan SLC, Inc.) were used. They were fed on a solid commercially available diet (CE-2, CLEA Japan, Inc.) and allowed to freely ingest tap water as the drinking water. An intravenous administration solution for the rats was prepared by weighing a test compound, dissolving same in dimethylacetamide (DMA) (Wako Pure Chemical Industries, Ltd.), adding the same volume of 1,3-butanediol (Wako Pure Chemical Industries, Ltd.) and mixing by stirring to give a DMA:1,3-butanediol (1:1, v/v) solution. An oral administration solution was prepared by weighing a test compound, pulverizing same in an agate mortar, and gradually adding 0.5 w/v % aqueous methylcellulose solution to give a suspension. For intravenous administration, the solution was administered into femoral vein of the rats at 0.1 mg/0.5 mL/kg (salt converted to free form). For oral administration, the suspension was administered to the rats at 1 mg/5 mL/kg (salt converted to free form). The cassette dosing method was used for the both administration routes, and the test compound was administered in the following manner. • Compound of Example 5 (intravenous: 9 compounds cassette administration, oral: 4 compounds cassette administration) • Compound of Example 6 (intravenous: 5 compounds cassette administration, oral: 3 compounds cassette administration) • Compound of Example 13 (intravenous: 10 compounds cassette administration, oral: 5 compounds cassette administration) • Compound of Example 14 (intravenous: 7 compounds cassette administration, oral: 3 compounds cassette administration) • Compound of Example 31 (intravenous: 9 compounds cassette administration, oral: 5 compounds cassette administration) • Compound of Example 60 (intravenous: 7 compounds cassette administration, oral: 2 compounds cassette administration)
In the case of intravenous administration, blood samples were collected from the tail vein at 5, 10, 15, 30 min, 1, 2, 4, 8 hr after administration, an anticoagulation treatment with heparin sodium (Shimizu Pharmaceutical Co., Ltd.) was performed, and plasma was collected after centrifugation and subjected to the measurement of drug concentration. In the case of oral administration, blood samples were collected from the tail vein at 15, 30 min, 1, 2, 4, 8 hr after administration, an anticoagulation treatment with heparin sodium was performed, and plasma was collected after centrifugation and subjected to the measurement of drug concentration.
All drug concentrations were measured by LC-MS/MS analysis. For a pharmacokinetics test, the plasma (50 μL) was placed in a tube, acetonitrile (150 μL) containing internal standard solution was added and they were mixed on a vortex mixer. Thereafter, the mixture was centrifuged (5000 rpm, 5 min, 4° C.). The supernatant (60 μL) after centrifugation was added to 10 mmol/L ammonium formate (160 μL) added earlier and mixed therewith. This sample was injected to LC/MS/MS. The HPLC system used was Shimadzu™ LC-20A (Shimadzu Corporation), the column used was Unison UK-C18 HT (3.0 μm, 2.0×20 mm, Imtakt) at 50° C., and 10 mmol/L ammonium formate, 0.2% formic acid as mobile phase A and acetonitrile, 0.2% formic acid as mobile phase B were fed each at a flow rate of 1.2 mL/min under gradient conditions of (B concentration: 0 min→0.1 min, 5%, 0.1→0.75 min, 5-99%, 0.75→1.15 min, 99%, 1.15→1.16 min, 5%, 1.16→1.5 min, 5%). MS/MS used was AB Sciex™ TQ5500-MPX (Applied Biosystems™).
The results are shown in Table 4. • Tmax: time to reach maximum plasma concentration • MRT: mean residence time • iv: intravenous administration • CL total: total clearance

Male beagle dogs = test: Experiment on gastrointestinal motility in dogs; type: in vivo, dog; settings: 4 or 8 hr after administration, compared with solvent administration group
Experimental: Experiment on Gastrointestinal Motility in Dogs
Male beagle dogs each equipped with four pressure transducers (one in the ileum and three in the large intestine) were used after an acclimation period for 15 days. The compound of Example 13 (0.03 mg/kg) or the compound of Example 60 (1 mg/kg) was suspended in 0.5% methylcellulose solution and orally administered at a volume of 10 mL/kg. Only 0.5% methylcellulose was administered to a solvent administration group.
HAPC (abbreviation for high amplitude propagated contractions which mean strong contractions propagated from the oral side to the anal side of the large intestine during defecation. Intestinal contraction pattern observed during normal defecation.) at 4 or 8 hr after administration was counted using a telemeter for gastrointestinal motility (GTS-850, STARMEDICAL).

Compound	EC50 (human M1 receptor)	clearance (Rat PK test)	MRT (Rat PK test)	Tmax (Rat PK test)	number of HAPCs in the intestinal tract (Male beagle dogs; oral 0.03 mg/kg)	number of HAPCs in the intestinal tract (Male beagle dogs; oral 1 mg/kg)
Cn1cnc(-c2ccc(Cc3cc(C(=O)N[C@H]4CCOC[C@@H]4O)c(F)c4c3OCC4)cc2)c1 [Example 5, 1,5-anhydro-2,3-dideoxy-3-(((4-fluoro-7-(4-(1-methyl-1H-imidazol-4-yl)benzyl)-2,3-dihydro-1-benzofuran-5-yl)carbonyl)amino)-L-threo-pentitol]	3.7 nM	11.1 mL/min/kg	36 min	30 min		
Cn1cc(-c2ccc(Cc3cc(C(=O)N[C@H]4CCOC[C@@H]4O)c(F)c4c3OCC4)cn2)cn1 [Example 6, 1,5-anhydro-2,3-dideoxy-3-(((4-fluoro-7-((6-(1-methyl-1H-pyrazol-4-yl)pyridin-3-yl)methyl)-2,3-dihydro-1-benzofuran-5-yl)carbonyl)amino)-L-threo-pentitol]	2 nM	6.5 mL/min/kg	84 min	72 min		
COCCNC(=O)c1ccc(Cc2cc(C(=O)N[C@H]3CCOC[C@@H]3O)c(F)c3c2OCC3)cc1F [Example 13, 1,5-anhydro-2,3-dideoxy-3-(((4-fluoro-7-(3-fluoro-4-((2-methoxyethyl)carbamoyl)benzyl)-2,3-dihydro-1-benzofuran-5-yl)carbonyl)amino)-L-threo-pentitol]	4.2 nM	13.7 mL/min/kg	72 min	60 min	an increase in the number of HAPCs in the intestinal tract was observed	
CCOCCNC(=O)c1ccc(Cc2cc(C(=O)N[C@H]3CCOC[C@@H]3O)c(F)c3c2OCC3)cc1F [Example 14, 1,5-anhydro-2,3-dideoxy-3-(((7-(4-((2-ethoxyethyl)carbamoyl)-3-fluorobenzyl)-4-fluoro-2,3-dihydro-1-benzofuran-5-yl)carbonyl)amino)-L-threo-pentitol]	20 nM	22.9 mL/min/kg	36 min	42 min		
CNC(=O)c1ccc(Cc2cc(C(=O)N[C@H]3CCOC[C@@H]3O)c(OC)c3c2OCC3)cc1F [Example 31, 1,5-anhydro-2,3-dideoxy-3-(((7-(3-fluoro-4-(methylcarbamoyl)benzyl)-4-methoxy-2,3-dihydro-1-benzofuran-5-yl)carbonyl)amino)-L-threo-pentitol]	18 nM	9.05 mL/min/kg	54 min	42 min		
COCCCNC(=O)c1ccc(Cc2cc(C(=O)N[C@H]3CCOC[C@@H]3O)c(OC)c3c2CCC3)cc1F [Example 60, 1,5-anhydro-2,3-dideoxy-3-(((7-(3-fluoro-4-((3-methoxypropyl)carbamoyl)benzyl)-4-methoxy-2,3-dihydro-1H-inden-5-yl)carbonyl)amino)-L-threo-pentitol]	17 nM	18.6 mL/min/kg	36 min	48 min		an increase in the number of HAPCs in the intestinal tract was observed
